Where two headings read alike, the source gives them in different places.
Assays:
[1] = system: Human platelet aggregation caused by ADP; assay: Inhibition of ADP-induced platelet aggregation (Mimic-human PRP); assay type: cell-based; details: 20 μM ADP, human platelet concentrate diluted with PPP, absorption at 595 nm
How it was run: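 Human PRP diluted with PPP to 3–4×10^8 platelets/mL was preincubated 20 min at room temperature with compound (0.01–30 μM, DMSO), then stimulated with 20 μM ADP. Aggregation read as A595 increase at 3 min versus 0 and 20 μM ADP controls; Ki from sigmoidal non-linear regression.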

Human P2Y12 receptor = molecular target: T1, Human P2Y12 receptor (Homo sapiens, UniProt Q9H244); assay: Human P2Y12 receptor cell membrane binding assay with [3H] 2-Mes-ADP
T1 construct: expressed in transfected cells; host or cells: HEK cells
T1 sequence (Q9H244 whole entry): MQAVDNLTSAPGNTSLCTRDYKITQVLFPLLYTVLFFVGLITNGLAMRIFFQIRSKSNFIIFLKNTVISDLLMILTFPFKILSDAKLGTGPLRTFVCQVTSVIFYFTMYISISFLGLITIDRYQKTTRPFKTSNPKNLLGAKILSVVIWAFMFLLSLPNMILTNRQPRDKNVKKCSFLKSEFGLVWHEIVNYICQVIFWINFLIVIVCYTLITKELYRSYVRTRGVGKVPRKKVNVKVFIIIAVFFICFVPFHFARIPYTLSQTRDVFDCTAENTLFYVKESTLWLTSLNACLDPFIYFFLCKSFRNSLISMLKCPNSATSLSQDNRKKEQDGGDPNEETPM
How it was run: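 Membranes from HEK cells expressing human P2Y12 were incubated with compound and 1 nM [3H]2-MeS-ADP for 1 h at room temperature. Bound radioactivity was collected by GF/B filtration.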

[2] = 1 nM [3H] 2-Mes-ADP, membranes of HEK cells expressing P2Y12 receptor, read-out: Binding activity (IC50)

Row | SMILES | Ki [1] [nM] | IC50 (Human P2Y12 receptor; [2]) [nM] | IC50 (Human P2Y12 receptor) [nM]
1 | CCCc1cc2c(N3CCn4c(nnc4C(F)(F)F)C3)nc(N3CC[C@H](C(=O)NCCO)C3)nc2s1 [Example 1-90, (S)-1-[6-Propyl-4-(3-trifluoromethyl-5,6-dihydro-8H-[1,2,4]triazolo[4,3-a]pyrazin-7-yl)-thieno[2,3-d]pyrimidin-2-yl]-pyrrolidine-3-carboxylic acid (2-hydroxy-ethyl)-amide] | 50 | 110 | –
2 | CCCc1cc2c(N3CCn4c(nnc4C(F)(F)F)C3)nc(N3CC[C@H](C(=O)NCCN)C3)nc2s1 [Example 1-91, (S)-1-[6-Propyl-4-(3-trifluoromethyl-5,6-dihydro-8H-[1,2,4]triazolo[4,3-a]pyrazin-7-yl)-thieno[2,3-d]pyrimidin-2-yl]-pyrrolidine-3-carboxylic acid (2-amino-ethyl)-amide] | 140 | 190 | –
3 | CCCc1cc2c(N3CCn4c(nnc4C(F)(F)F)C3)nc(N3CC3C(=O)OC)nc2s1 (stereo not drawn) [Example 1-96, 1-[6-Propyl-4-(3-trifluoromethyl-5,6-dihydro-8H-[1,2,4]triazolo[4,3-a]pyrazin-7-yl)-thieno[2,3-d]pyrimidin-2-yl]-aziridine-2-carboxylic acid methyl ester] | 21 | – | 630
4 | CCCc1cc2c(N3CCn4c(nnc4C(F)(F)F)C3)nc(N3CCC(N(C)C)C3)nc2s1 (stereo not drawn) [Example 1-97, Dimethyl-{1-[6-propyl-4-(3-trifluoromethyl-5,6-dihydro-8H-[1,2,4]triazolo[4,3-a]pyrazin-7-yl)-thieno[2,3-d]pyrimidin-2-yl]-pyrrolidin-3-yl}-amine] | 13 | 140 | –
5 | CCCc1cc2c(N3CCn4c(nnc4C(F)(F)F)C3)nc(NC3CCNC3)nc2s1 (stereo not drawn) [Example 1-98, [6-Propyl-4-(3-trifluoromethyl-5,6-dihydro-8H-[1,2,4]triazolo[4,3-a]pyrazin-7-yl)-thieno[2,3-d]pyrimidin-2-yl]-pyrrolidin-3-yl-amine] | 32 | 470 | –
6 | CCCc1cc2c(N3CCn4c(nnc4C(F)(F)F)C3)nc(N3CC[C@H](NCCO)C3)nc2s1 [Example 1-99, 2-{(S)-1-[6-Propyl-4-(3-trifluoromethyl-5,6-dihydro-8H-[1,2,4]triazolo[4,3-a]pyrazin-7-yl)-thieno[2,3-d]pyrimidin-2-yl]-pyrrolidin-3-ylamino}-ethanol] | 43 | 130 | –
7 | CCCc1cc2c(N3CCn4c(nnc4C(F)(F)F)C3)nc(N3CC[C@H](NC(=O)CC#N)C3)nc2s1 [Example 1-103, 2-Cyano-N-{(S)-1-[6-propyl-4-(3-trifluoromethyl-5,6-dihydro-8H-[1,2,4]triazolo[4,3-a]pyrazin-7-yl)-thieno[2,3-d]pyrimidin-2-yl]-pyrrolidin-3-yl}-acetamide] | 6.6 | 50 | –
8 | CCCc1cc2c(N3CCn4c(nnc4C(F)(F)F)C3)nc(N3CC[C@H](NC(=O)CC(F)(F)F)C3)nc2s1 [Example 1-104, 3,3,3-Trifluoro-N-{(S)-1-[6-propyl-4-(3-trifluoromethyl-5,6-dihydro-8H-[1,2,4]triazolo[4,3-a]pyrazin-7-yl)-thieno[2,3-d]pyrimidin-2-yl]-pyrrolidin-3-yl}-propionamide] | 86 | 80 | –
9 | CCCc1cc2c(N3CCn4c(nnc4C(F)(F)F)C3)nc(N3CC[C@H](NC(=O)CCO)C3)nc2s1 [Example 1-109, 3-Hydroxy-N-{(S)-1-[6-propyl-4-(3-trifluoromethyl-5,6-dihydro-8H-[1,2,4]triazolo[4,3-a]pyrazin-7-yl)-thieno[2,3-d]pyrimidin-2-yl]-pyrrolidin-3-yl}-propionamide] | 26 | 80 | –
10 | CCCc1cc2c(N3CCn4c(nnc4C(F)(F)F)C3)nc(N3CC[C@H](NC(=O)CCN)C3)nc2s1 [Example 1-110, 3-Amino-N-{(S)-1-[6-propyl-4-(3-trifluoromethyl-5,6-dihydro-8H-[1,2,4]triazolo[4,3-a]pyrazin-7-yl)-thieno[2,3-d]pyrimidin-2-yl]-pyrrolidin-3-yl}-propionamide] | 60 | 670 | –
11 | CCCc1cc2c(N3CCn4c(nnc4C(F)(F)F)C3)nc(N3CC[C@H](NC(=O)c4ccccn4)C3)nc2s1 [Example 1-111, Pyridine-2-carboxylic Acid {(S)-1-[6-propyl-4-(3-trifluoromethyl-5,6-dihydro-8H-[1,2,4]triazolo[4,3-a]pyrazin-7-yl)-thieno[2,3-d]pyrimidin-2-yl]-pyrrolidin-3-yl}-amide] | 590 | 150 | –
12 | CCCc1cc2c(N3CCn4c(nnc4C(F)(F)F)C3)nc(N3CC[C@H](NC(=O)c4ccco4)C3)nc2s1 [Example 1-112, Furan-2-carboxylic Acid {(S)-1-[6-propyl-4-(3-trifluoromethyl-5,6-dihydro-8H-[1,2,4]triazolo[4,3-a]pyrazin-7-yl)-thieno[2,3-d]pyrimidin-2-yl]-pyrrolidin-3-yl}-amide] | 260 | 50 | –
13 | CCCc1cc2c(N3CCn4c(nnc4C(F)(F)F)C3)nc(N3CC[C@H](NS(C)(=O)=O)C3)nc2s1 [Example 1-113, N-{(S)-1-[6-Propyl-4-(3-trifluoromethyl-5,6-dihydro-8H-[1,2,4]triazolo[4,3-a]pyrazin-7-yl)-thieno[2,3-d]pyrimidin-2-yl]-pyrrolidin-3-yl}-methanesulfonamide] | 36 | 32 | –
14 | CCCc1cc2c(N3CCn4c(nnc4C(F)(F)F)C3)nc(N3CC(=O)C(N)C3)nc2s1 (stereo not drawn) [Example 1-115, 4-Amino-1-[6-propyl-4-(3-trifluoromethyl-5,6-dihydro-8H-[1,2,4]triazolo[4,3-a]pyrazin-7-yl)-thieno[2,3-d]pyrimidin-2-yl]-pyrrolidin-3-one] | 16 | 110 | –
15 | CCCc1cc2c(N3CCn4c(nnc4C(F)(F)F)C3)nc(N3CC(=NO)C(N)C3)nc2s1 (stereo not drawn) [Example 1-116, 4-Amino-1-[6-propyl-4-(3-trifluoromethyl-5,6-dihydro-8H-[1,2,4]triazolo[4,3-a]pyrazin-7-yl)-thieno[2,3-d]pyrimidin-2-yl]-pyrrolidin-3-one oxime] | 28 | 70 | –
16 | CCCc1cc2c(N3CCn4c(nnc4C(F)(F)F)C3)nc(N3CC(=NOC)C(N)C3)nc2s1 (stereo not drawn) [Example 1-117, 4-Amino-1-[6-propyl-4-(3-trifluoromethyl-5,6-dihydro-8H-[1,2,4]triazolo[4,3-a]pyrazin-7-yl)-thieno[2,3-d]pyrimidin-2-yl]-pyrrolidin-3-one O-methyl-oxime] | 42 | 220 | –
17 | CCCc1cc2c(N3CCn4c(nnc4C(F)(F)F)C3)nc(N3CC[C@H](NC(=O)Cc4c[nH]cn4)C3)nc2s1 [Example 1-120, 2-(1H-Imidazol-4-yl)-N-{(S)-1-[6-propyl-4-(3-trifluoromethyl-5,6-dihydro-8H-[1,2,4]triazolo[4,3-a]pyrazin-7-yl)-thieno[2,3-d]pyrimidin-2-yl]-pyrrolidin-3-yl}-acetamide] | 16 | 38 | –
18 | CCCc1cc2c(N3CCn4c(nnc4C(F)(F)F)C3)nc(NCCOCC)nc2s1 [Example 1-122, (2-Ethoxy-ethyl)-[6-propyl-4-(3-trifluoromethyl-5,6-dihydro-8H-[1,2,4]triazolo[4,3-a]pyrazin-7-yl)-thieno[2,3-d]pyrimidin-2-yl]-amine] | 467 | 220 | –
19 | CCCc1cc2c(N3CCn4c(nnc4C(F)(F)F)C3)nc(NCCOCCO)nc2s1 [Example 1-123, 2-{2-[6-Propyl-4-(3-trifluoromethyl-5,6-dihydro-8H-[1,2,4]triazolo[4,3-a]pyrazin-7-yl)-thieno[2,3-d]pyrimidin-2-ylamino]-ethoxy}-ethanol] | 367 | 260 | –
20 | CCCc1cc2c(N3CCn4c(nnc4C(F)(F)F)C3)nc(N3CCC[C@H](N)C3)nc2s1 [Example 1-125, (S)-1-[6-Propyl-4-(3-trifluoromethyl-5,6-dihydro-8H-[1,2,4]triazolo[4,3-a]pyrazin-7-yl)-thieno[2,3-d]pyrimidin-2-yl]-piperidin-3-ylamine] | 45 | 150 | –
21 | CCCc1cc2c(N3CCn4c(nnc4C(F)(F)F)C3)nc(N[C@H]3CCNC3)nc2s1 [Example 1-126, [6-Propyl-4-(3-trifluoromethyl-5,6-dihydro-8H-[1,2,4]triazolo[4,3-a]pyrazin-7-yl)-thieno[2,3-d]pyrimidin-2-yl]-(S)-pyrrolidin-3-yl-amine] | 29 | 130 | –
22 | CCCc1cc2c(N3CCn4c(nnc4C(F)(F)F)C3)nc(N3CCC(C(=O)NS(=O)(=O)Cc4ccccc4)CC3)nc2s1 [Example 1-127, C-Phenyl-N-{1-[6-propyl-4-(3-trifluoromethyl-5,6-dihydro-8H-[1,2,4]triazolo[4,3-a]pyrazin-7-yl)-thieno[2,3-d]pyrimidin-2-yl]-piperidine-4-carbonyl}-methanesulfonamide] | 900 | 100 | –
23 | CCCc1cc2c(N3CCn4c(nnc4C(F)(F)F)C3)nc(NCCN3CSCC3=O)nc2s1 [Example 1-128, 3-{2-[6-Propyl-4-(3-trifluoromethyl-5,6-dihydro-8H-[1,2,4]triazolo[4,3-a]pyrazin-7-yl)-thieno[2,3-d]pyrimidin-2-ylamino]-ethyl}-thiazolidin-4-one] | 61 | 100 | –
24 | CCCc1cc2c(N3CCn4c(nnc4C(F)(F)F)C3)nc(N[C@@H]3CCNC3)nc2s1 [Example 1-130, [6-Propyl-4-(3-trifluoromethyl-5,6-dihydro-8H-[1,2,4]triazolo[4,3-a]pyrazin-7-yl)-thieno[2,3-d]pyrimidin-2-yl]-(R)-pyrrolidin-3-yl-amine] | 132 | 320 | –

Source: patent US20110166121A1 (LG LIFE SCIENCES LTD., priority 2008, published 2011)
